These results are taken from patent US10040836B2, “Peptides for the treatment of neurodegenerative diseases” (Ramot at Tel-Aviv University Ltd., priority 2012, dated 2018).

Data set [1] concerns SH-SY5Y cells. The data set is described as follows: Cell viability, proliferation and cell cycle in a basal state. The format is cell-based, Human. As to conditions: up to 50 μM. On the procedure: SH-SY5Y cells were pre-incubated with 25 μM ED11 for one hour. Then, 10 μM 5-bromo-2-deoxyuridine (BrdU) was added for 2 hours. Medium was discarded and cells were fixed with 70% ethanol. DNA denaturation was conducted with 1.5 M HCl exposure for 30 minutes. FITC conjugated anti-BrdU antibody was used to mark incorporated BrdU. DNA staining was performed by using propidium iodide (PI). 15,000 cells per sample were read using FACS-Calibur flow cytometer, and cell-cycle analysis was conducted after doublet discrimination.
To induce exogenous glutamate toxicity, SH-SY5Y cell were incubated with the indicated concentrations of L-Glutamate (Sigma) for 16 hours, in the presence of 20 μM ED11 or vehicle control. For the In-cell caspase-6 activity assay, green FLICA caspase-6 assay (ImmunoChemistry Technologies) was conducted according to the manufacturer's instructions. Briefly, cells were lifted by trypsin and adjusted to 1.5×10^6 cells/ml. Cells were incubated with FAM-VEID-FMK for 1 hour in 37° C., washed with PBS and 5,000 cells per sample were analyzed by flow-cytometry. For apoptosis detection, Annexin V-FITC apoptosis detection assay (Abcam) was conducted according to the manufacturer's instructions. Briefly, 2×10^5 cells were incubated with Annexin V-FITC and PI for 5 minutes in R.T, and 15,000 cells per sample were analyzed by flow-cytometry. For viability assessment, medium was depleted and washed twice with PBS, and alamar-blue dye (AbD serotec, 1/10 in culture medium) was added to the cells, as instructed by the manufacturer. Fluorescence was monitored at 530-560 nm excitation wavelength and 590 nm emission wavelength, and viability was calculated as percentage of untreated control.

For data set [2], the target named is T1, caspase-6 (Homo sapiens, UniProt P55212).
T1 construct: purchased Enzo life-science
T1 sequence (P55212 24-293): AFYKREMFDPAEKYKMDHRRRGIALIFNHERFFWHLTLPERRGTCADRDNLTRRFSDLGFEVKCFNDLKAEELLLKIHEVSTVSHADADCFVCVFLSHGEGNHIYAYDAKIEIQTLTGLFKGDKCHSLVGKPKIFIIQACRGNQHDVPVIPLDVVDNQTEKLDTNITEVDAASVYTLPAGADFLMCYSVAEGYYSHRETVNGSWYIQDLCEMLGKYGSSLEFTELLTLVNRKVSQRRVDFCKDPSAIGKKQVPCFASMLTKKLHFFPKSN
The data set is described as follows: Purified caspase-6 activity assay (Caspase-Glo 6, Z-VEID-aminoluciferin). The class given is biochemical. On the procedure:
For determining ED11 caspase-6 inhibition ability, the Caspase-Glo® 6 assay (Promega) was carried out according to the manufacturer's instructions. Briefly, 0.1 U/ml Purified caspase-6 (Enzo life-science) was incubated with 0-12 μM Z-VEID-aminoluciferin in the presence of 10 μM ED11 or DMSO as vehicle control, and luminescent signal of released aminoluciferin (as RLU) was detected using Synergy HT multi-mode micro-plate reader (Bio-Tek). For Michaelis-Menten curve plotting, initial velocity was calculated using linear regression of the progress curve linear segment, adjusted to RLU/min. For caspase-3 inhibition capability, caspase-3 inhibitor drug detection kit (Abcam) was performed according to the manufacturer's instructions.
EDII inhibits caspase-6 activity in a purified caspase-6 activity assay: To test the peptide ability to compete on caspase-6 activity, purified caspase-6 and Z-VEID-Aminoluciferin (Caspase-6 Glo™, Promega) were incubated with ED11, and bioluminescence signal was detected using SynergyHT microplate reader (FIGS. 1A-1D).

In data set [3] the target is T2, caspase-3 (Homo sapiens, UniProt P42574).
T2 construct: purchased Abcam
T2 sequence (P42574 29-277): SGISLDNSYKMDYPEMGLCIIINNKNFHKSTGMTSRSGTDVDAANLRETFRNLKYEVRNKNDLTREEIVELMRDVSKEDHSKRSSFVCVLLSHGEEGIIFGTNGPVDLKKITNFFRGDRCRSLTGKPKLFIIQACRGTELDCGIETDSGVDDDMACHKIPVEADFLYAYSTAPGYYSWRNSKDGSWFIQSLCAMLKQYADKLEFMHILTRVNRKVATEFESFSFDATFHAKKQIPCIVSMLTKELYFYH
The data set is described as follows: Fluorescent caspase-3 inhibition assay (caspase-3 inhibitor drug detection kit). The class given is biochemical. As to conditions: purified caspase-3/caspase-6 assay, FIGS. 1E-1F.

Where a SMILES comes first, the peptide text is derived from it. Where no end group is shown, it is not given here. The star is where a group is joined. Cbz = O=C(OCc1ccccc1)*; CH2F = FC*

Regarding GRKKRRQRRRPPQSSEIVLDGTDN [ED11], in data set [1], the “cell proliferation (BrdU)” value was “no effect”. The “cell viability (ALAMAR blue)” value in data set [1] (48 hours incubation) is “no effect”. The cell cycle state entry in data set [1] (O.N. incubation) is given as “no effect”.

`COC(=O)C[C@H](NC(=O)[C@H](C)NC(=O)[C@@H](NC(=O)OCc1ccccc1)C(C)C)C(=O)CF` [Z-VAD-FMK, reference compound] (Cbz-Val-Ala-Asp(OMe)-CH2F): the “caspase-6 activity, specificity experiment” value in data set [2] (purified caspase-3/caspase-6 assay, FIGS. 1E-1F) is “inhibits activity of caspase-3 and caspase-6”. Moreover, the “caspase-3 activity, specificity experiment” value in data set [3] is “inhibits activity of caspase-3 and caspase-6”.

With “modified peptide: ED11 with three of the amino acids in positions 17, 20 and 23 changed to Histidine (H) (GRKKRRQRRRPPQSSEHVLHGTHN)”, the caspase-6 activity entry in data set [2] (purified caspase-6, Z-VEID-aminoluciferin, 10 μM ED11) is “ineffective and didn't inhibit the caspase 6 activity”.
